Here are results for two compounds from PMC10985088, “Synthesis and biological evaluation of echinomycin analogues as potential colon cancer agent” (Scientific Reports, 2024).

Data set [1] deals with SW620 cells. The data set can be described thus: WST-8 cytotoxicity assay, SW620. To be noted: read-out: IC50 SW620; human colon cancer cell, 72 h, mean ± SE (n = 3). Here is the method:
(§1) With a range of chromophore analogues in hand, their toxicity to SW620 cells was investigated by WST assays.
(§2) Basically, the evaluation was performed using methods previously reported by our group[20],[23]. Cytotoxic activities of compounds against MIA PaCa-2 (American Type Culture Collection), SW620 (European Collection of Authenticated Cell Cultures) were measured by WST-8 assay according to manufacturer’s protocol. Briefly, cells (1 × 10^4 cells/well) in a 96-well plate were cultured in medium (for MIA PaCa-2, D-MEM (Wako, Japan) containing 10% fetal bovine serum (Funakoshi, Japan), 100 units/mL penicillin G and 100 µg/mL streptomycin (Wako, Japan), for SW620, RPMI-1640 (Wako, Japan) containing 10% fetal bovine serum, 100 units/mL penicillin G and 100 µg/mL streptomycin) were cultured at 37 °C for 24 h under 5% CO2 atmosphere. Then, cells were treated with test compounds (final DMSO concentration was 1%) at 37 °C for 72 h under 5% CO2 atmosphere. Then, cells were treated with a solution of Cell Counting Kit-8® (Dojindo, Japan) for 3 h. After that, cell viabilities were determined based on the measurement of absorption at 450 nm of the wells by using TECAN Infinite® M200 microplate reader. The results were expressed as a percentage of the negative control (cells treated with DMSO only), and that value was fixed at 100%.

Data set [2] in a line: Hepatic microsomal stability assay, human. To be noted: 30 min; for CLint scaled: microsomes, 1 μM; for CLint scaled / CLint scaled at 1 μM: 0.2 mg/mL microsomes, 37 °C; for CLint scaled at 1 μM: human liver microsomes, pH 7.4, 1 μM. The format is in vitro ADME. On the procedure:
(§3) Before investigating the in vivo efficacy of 3, its metabolic stability was evaluated by treatment with human or mouse liver microsomes at 37 °C for 30 min, and the remaining analogues were analyzed by LC–MS/MS (Table 3). […] This means that approximately 67% of 3 was unaffected by human liver microsomes.
(§4) Basically, the analysis was performed using methods previously reported. Disappearance of the parent compound over time was measured by using the amount of drug at time zero as a reference. After 5 min of preincubation, 1 mM NADPH (final concentration, the same applies to the following, NADPH( +)) or 0.1 M phosphate buffer (pH 7.4, NADPH(−))) was added to a mixture containing 1 μM of the test compound, 0.2 mg/mL of human or mouse liver microsomes (Sekisui XenoTech LLC (Kansas City, KS)), 1 mM EDTA and 0.1 M phosphate buffer (pH 7.4) and incubated at 37 °C for 30 min by rotation at 60 rpm. An aliquot of 50 μL of the incubation mixture was sampled and added to 250 μL of chilled acetonitrile/internal standard (IS). After centrifuging for 15 min at 3150×g (4 °C), the supernatants were analyzed by LC–MS/MS. Hepatic microsomal stability (mL/min/kg, CLint) was calculated according to the previous report, using 48.8 and 45.4 mg MS protein/g liver and 25.7 and 87.5 g liver/kg body weight as scaling factors for human and mouse, respectively.
(§5) Basically, the analysis was performed using methods previously reported. An LC-MS8060 instrument equipped with a Shimadzu Nexera series LC system (Shimadzu, Kyoto, Japan) was used. All compounds were analyzed in multi-reaction monitoring mode under electron spray ionization conditions. The analytical column used was a […] C18 MGIII (3 μm × 2.0 mmID × 35 mm; OSAKA SODA, Osaka, Japan) at 50 °C. The gradient mobile phase consisted of 0.1% formic acid in water (mobile phase A,) and 0.1% formic acid in acetonitrile (mobile phase B) at a total flow rate of 1 mL/min. The initial mobile phase composition was 10% B, which was held constant for 0.2 min, increased in a linear fashion to 90% B over 1 min, then held constant for 0.8 min, and finally brought back to the initial condition of 10% B over 0.01 min and re-equilibrated for 1 min. The transitions (precursor ion > product ion) of echinomycin, 3 and IS (methyl testosterone) are 1101.45 > 1053.5 (positive), 1083.5 > 523.95 (negative), and 303.1 > 109.1 (positive), respectively.
On the technique in general: Liver microsomes are a subcellular fraction often used to study metabolism.

Data set [3] can be described thus: Investigation of maximum tolerated dose (body weight of mice). In kind it is in vivo, mouse. To be noted: 14 days. On the procedure:
(§6) Toxicity Body weight change is an indicator of systemic toxicity. Accordingly, the body weights of mice intraperitoneally treated with different doses (0.04 and 0.4 µg/mouse) of either 1 or 3 were measured (Fig. S1). […] A blood hematological examination (including nineteen parameters) was also conducted on these mice on Day 14 (Fig. S2). There were no significant changes in almost any of the parameters in the mice treated with either 1 or 3 at doses of 0.04 or 0.4 µg/mouse.

Data set [4] can be described thus: Serum biochemistry / blood examination of treated mice. The format is in vivo. To be noted: 0.4 µg/mouse i.p., Day 14. On the procedure: as §6
Male BALB/c mice (7 weeks old) were purchased from Charles River Laboratories Japan, Inc. Each compound was intraperitoneally injected daily for 14 days. […] Serum was collected by centrifuging blood at 5000 rpm for 10 min. Biochemistry was performed in Oriental Yeast Co., Ltd, Japan.

For data set [5], the system named is MIA PaCa-2 cells. The following applies: read-out: IC50 MIA PaCa-2; human pancreatic carcinoma cell, 72 h, mean ± SE (n = 3). Here is the method: as §1, §2
A short description of data set [6]: Hepatic microsomal stability assay, mouse. The format is in vitro ADME. The following applies: 0.2 mg/mL microsomes, 37 °C, 30 min; for CLint scaled: microsomes, 1 μM; for CLint scaled at 1 μM: mouse liver microsomes, pH 7.4, 1 μM. Here is the method:
as §3, §4, §5

Where [7] appears, read: NADPH(+), read-out: Metabolic stability (CLint) Human NADPH(+).
Setting [8] is: NADPH(−), read-out: Metabolic stability (CLint) Human NADPH(−).
The mark [9] stands for this setting: NADPH(+), read-out: Metabolic stability (CLint) Mouse NADPH(+).
Setting [10] is: NADPH(−), read-out: Metabolic stability (CLint) Mouse NADPH(−).

Usually IC50 stands for the concentration that inhibits the measured activity by half. Take `CC(C)[C@H]1C(=O)OC[C@@H](NC(=O)c2nc3ccccc3cc2O)C(=O)N[C@@H](C)C(=O)N(C)[C@H]2CSC[C@@H](C(=O)N1C)N(C)C(=O)[C@H](C)NC(=O)[C@H](NC(=O)c1nc3ccccc3cc1O)COC(=O)[C@H](C(C)C)N(C)C2=O` [Compound 3]: the IC50 came to 0.85 ± 0.13 nM in data set [1] and 1.4 ± 0.1 nM in data set [5]. In data set [2] (liver microsomes, pH 7.4, 37 °C, in the presence of NADPH, read-out: fraction unaffected by human liver microsomes), the remaining at 0.5 h, 1 μM was approximately 67%. Moreover, the CLint scaled is 83.7 mL/min/kg in data set [2] (setting [7]), 45.1 mL/min/kg in data set [2] (setting [8]), 386 mL/min/kg in data set [6] (setting [9]) and 118 mL/min/kg in data set [6] (setting [10]). Further, in data set [3] (i.p. 0.04 and 0.4 µg/mouse, daily), the body weight result is given as “did not differ greatly from those of the control”. Further, in data set [3] (i.p. daily, body weight and blood examination), the “dose up to which no significant toxicity is shown” value is listed as not below 0.04 µg/mouse. For the same compound, the maximum tolerated dose in data set [3] (i.p. daily, expected) amounted to 0.04 µg/mouse. For the same compound, the “alanine aminotransferase (ALT)” value in data set [4] was “increase”. For the same compound, the “aspartate aminotransferase (AST)” value in data set [4] is given as “increase”. Further, the “lactate dehydrogenase (LDH)” value in data set [4] is on record as “increase”. For the same compound, in data set [4], the “total bilirubin (T-BIL)” value is given as “decrease”.
As to `Cc1ncc2n1-c1ccc(Cl)cc1C(c1ccccc1F)=NC2` [Midazolam], the CLint scaled at 1 μM in data set [2] (setting [7]) was 435 mL/min/kg; in data set [2] (setting [8]) it was less than 22 mL/min/kg; in data set [6] (setting [9]), 4010 mL/min/kg; in data set [6] (setting [10]) it was less than 69.8 mL/min/kg.
